Literature values in US8808745B2 (Egalet Ltd., priority 2001, dated 2014).

Conditions: single dose of 10 mg oral morphine, plain tablet composition

CN1CC[C@]23c4c5ccc(O)c4O[C@H]2[C@@H](O)C=C[C@H]3[C@H]1C5 [morphine]
average duration of action: 4 to 5 h
